Results taken from PubChem BioAssay (NCI).
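Growth conditions: 96-well plates. Treatment: test compound, 48 hours, 5 concentrations. Analysis: linear interpolation between bracketing concentrations; unreached endpoints set to highest concentration. The concentration for 50% growth inhibition is given as GI50. TGI is the concentration that stops growth completely.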

Assays:
Experiment in all cases: NCI-60 cell line screen, 48 h
[1] = system: 786-0 renal
[2] = system: A498 renal
[3] = system: A549 NSCLC
[4] = system: ACHN renal
[5] = system: BT-549 breast
[6] = system: CAKI-1 renal
[7] = system: CCRF-CEM leukemia
[8] = system: COLO 205 colon
[9] = system: DU-145 prostate
[10] = system: HCC-2998 colon
[11] = system: HCT-15 colon
[12] = system: HL-60(TB) leukemia
[13] = system: HOP-62 NSCLC
[14] = system: HOP-92 NSCLC
[15] = system: HS 578T breast
[16] = system: HT29 colon
[17] = system: IGROV1 ovarian
[18] = system: K-562 leukemia
[19] = system: KM12 colon
[20] = system: M14 melanoma
[21] = system: MALME-3M melanoma
[22] = system: MCF7 breast
[23] = system: MDA-MB-231 breast
[24] = system: MDA-MB-435
[25] = system: MOLT-4 leukemia
[26] = system: NCI-H226 lung
[27] = system: NCI-H23 lung
[28] = system: NCI-H460 lung
[29] = system: NCI-H522 lung
[30] = system: NCI/ADR-RES ovarian
[31] = system: OVCAR-3 ovarian
[32] = system: OVCAR-4 ovarian
[33] = system: OVCAR-5 ovarian
[34] = system: OVCAR-8 ovarian
[35] = system: PC-3 prostate
[36] = system: RPMI-8226 leukemia
[37] = system: RXF 393 renal
[38] = system: SF-268 CNS
[39] = system: SF-295 CNS
[40] = system: SF-539 CNS
[41] = system: SK-MEL-2 melanoma
[42] = system: SK-MEL-28 melanoma
[43] = system: SK-MEL-5 melanoma
[44] = system: SK-OV-3 ovarian
[45] = system: SN12C renal
[46] = system: SNB-19 CNS
[47] = system: SNB-75 CNS
[48] = system: SR leukemia
[49] = system: SW-620 colon
[50] = system: T-47D breast
[51] = system: TK-10 renal
[52] = system: U251 CNS
[53] = system: UACC-257 melanoma
[54] = system: UACC-62 melanoma
[55] = system: UO-31 renal

Structure (SMILES): FC(F)(F)c1ccc2nc(-c3nc(-c4ccccc4)n4ccccc34)[nH]c2c1
- GI50 [1]: 1.92 µM
- TGI [1]: 3.56 µM
- GI50 [2]: 1.69 µM
- TGI [2]: 5.85 µM
- GI50 [3]: 3.12 µM
- TGI [3]: 11.1 µM
- GI50 [4]: 2.23 µM
- TGI [4]: 6.12 µM
- GI50 [5]: 4.23 µM
- TGI [5]: 63.4 µM
- GI50 [6]: 5.07 µM
- TGI [6]: 27.1 µM
- GI50 [7]: 5.64 µM
- TGI [7]: > 100 µM
- GI50 [8]: 4.88 µM
- TGI [8]: > 100 µM
- GI50 [9]: 7.5 µM
- TGI [9]: 30.3 µM
- GI50 [10]: 5.98 µM
- TGI [10]: 22.4 µM
- GI50 [11]: 3.5 µM
- TGI [11]: 22 µM
- GI50 [12]: 27.8 µM
- TGI [12]: > 100 µM
- GI50 [13]: 2.46 µM
- TGI [13]: 9.26 µM
- GI50 [14]: 3.66 µM
- TGI [14]: 17.4 µM
- GI50 [15]: 3.65 µM
- TGI [15]: 33.6 µM
- GI50 [16]: 3.47 µM
- TGI [16]: 11.1 µM
- GI50 [17]: 4.03 µM
- TGI [17]: 20.5 µM
- GI50 [18]: 11 µM
- TGI [18]: > 100 µM
- GI50 [19]: 5.11 µM
- TGI [19]: > 100 µM
- GI50 [20]: 17.7 µM
- TGI [20]: > 100 µM
- GI50 [21]: 2.71 µM
- TGI [21]: 9.02 µM
- GI50 [22]: 2.4 µM
- TGI [22]: 21 µM
- GI50 [23]: 2.04 µM
- TGI [23]: 5.39 µM
- GI50 [24]: 5.47 µM
- TGI [24]: 31.6 µM
- GI50 [25]: 28.3 µM
- TGI [25]: > 100 µM
- GI50 [26]: 10.9 µM
- TGI [26]: 32.9 µM
- GI50 [27]: 3.21 µM
- TGI [27]: 14.7 µM
- GI50 [28]: 2.93 µM
- TGI [28]: 11.2 µM
- GI50 [29]: 2.99 µM
- TGI [29]: 9.88 µM
- GI50 [30]: 3.71 µM
- TGI [30]: 38.5 µM
- GI50 [31]: 4.08 µM
- TGI [31]: 16.3 µM
- GI50 [32]: 1.81 µM
- TGI [32]: 3.71 µM
- GI50 [33]: 6.77 µM
- TGI [33]: 47.2 µM
- GI50 [34]: 2.7 µM
- TGI [34]: 7.68 µM
- GI50 [35]: 4.11 µM
- TGI [35]: > 100 µM
- GI50 [36]: 3.84 µM
- TGI [36]: 36.9 µM
- GI50 [37]: 2.64 µM
- TGI [37]: 6.98 µM
- GI50 [38]: 5.63 µM
- TGI [38]: > 100 µM
- GI50 [39]: 3.85 µM
- TGI [39]: 15.1 µM
- GI50 [40]: 1.69 µM
- TGI [40]: 3.38 µM
- GI50 [41]: 14.9 µM
- TGI [41]: 40.3 µM
- GI50 [42]: 9.22 µM
- TGI [42]: 31.6 µM
- GI50 [43]: 1.9 µM
- TGI [43]: 5.55 µM
- GI50 [44]: 1.86 µM
- TGI [44]: 3.53 µM
- GI50 [45]: 2.59 µM
- TGI [45]: 8.56 µM
- GI50 [46]: 6.44 µM
- TGI [46]: 20.8 µM
- GI50 [47]: 1.68 µM
- TGI [47]: 3.94 µM
- GI50 [48]: 3.65 µM
- TGI [48]: > 100 µM
- GI50 [49]: 3.17 µM
- TGI [49]: 23.6 µM
- GI50 [50]: 1.71 µM
- TGI [50]: 16.9 µM
- GI50 [51]: 2.85 µM
- TGI [51]: 5.32 µM
- GI50 [52]: 1.98 µM
- TGI [52]: 4.03 µM
- GI50 [53]: 13.1 µM
- TGI [53]: 46.2 µM
- GI50 [54]: 3.19 µM
- TGI [54]: 17.9 µM
- GI50 [55]: 4.37 µM
- TGI [55]: 18.6 µM
